These results are taken from patent US8703711B2, “Ninjurin-1 modulation and uses thereof” (Val-Chum, Limited Partnership, priority 2009, dated 2014).

The test system of one assay is SCI mice. The assay is described as follows: Spinal cord injury (SCI), contusion with Infinite Horizons impactor. The assay is classed as in vivo, C57BL/6 mice. How it is done:
Immunofluorescent stainings of human and mouse CNS material. Luxol Fast Blue (LFB) and H&E stainings (Wosik et al., 2007) were performed on human and mouse brain tissue specimens obtained from four MS patients (autopsy) and EAE/SCI animals. Sections showing acute demyelinating lesions and active perivascular mononuclear cell infiltration were selected (8 to 12 blocks per MS donor), and compared to normal-appearing white matter from the same donors (8 blocks per donor) and to non-neurological disease controls (3 donors; 9-11 blocks per donor). Mean age was 49±6 years and disease duration ranged from 3 to 23 years. The cause of death was pneumonia (2), urosepsis (1) and barbiturate intoxication (1). […] Fluorescence was visualized on a Leica™ DM6000 B epifluorescent microscope equipped with a DFC480 digital camera (Leica Microsystems, Wetzlar Germany) or on a Leica™ SP5 confocal microscope. Images were acquired using Openlab™ 4.0.4 (Improvision, Waltham, Mass.) and processed and analyzed with Adobe Photoshop™ CS2 (Adobe, Mountain View, Calif.). Numbers of CD11c+ DCs, F4/80+ macrophages and MHC II+ cells in spinal cord were quantified in pictures of 15 random fields of the spinal cord (two mice per treatment group). […]
Spinal cord injury. […] Locomotor recovery was evaluated in an open-field test using the Basso Mouse Scale (BMS) (Basso D. M. et al., (2006). J Neurotrauma. 23(5): 635-59). […]

A further assay has as its system EAE mice. The assay is described as follows: Experimental autoimmune encephalomyelitis (EAE) induced with MOG35-55/CFA. The assay is classed as in vivo, C57BL/6 mice. As to the method:
Flow Cytometric analysis of Ninjurin-1 expression. Cells were harvested and resuspended in FACS buffer composed of PBS supplemented with 1% FBS (Biosource-Invitrogen) and 0.1% NaN3 (Sigma). The cells were incubated with HS (Biosource-Invitrogen) to prevent unspecific binding. BBB-endothelial cells and PBMCs were incubated for 1 h at 4° C. with the primary unconjugated monoclonal mouse anti-Ninjurin-1 antibody (20 μg/ml, BD Biosciences), or with the Functional Grade Purified Mouse IgG2a Isotype Control (20 μg/ml, ebioscience, Inc., San Diego, Calif., USA). Cells were then incubated for 30 min at 4° C. with an allophycocyanin (APC)-conjugated goat anti-mouse Ig (2 μg/ml, BD Biosciences) to detect specific binding. Cells were then counter-stained for 30 min at 4° C. with mouse anti-human conjugated antibodies: Human Leukocyte Antigen (HLA)-ABC, Intracellular cell adhesion molecule (ICAM)-1, CD3, CD4, CD8, CD19, HLA-DR, CD14, CD83, CD123, CD209, CD11c or with corresponding isotype controls (all from BD Biosciences). To study the expression of Ninjurin-1 on murine immune cells, the mouse monoclonal anti-Ninjurin-1 antibody was biotinylated, to prevent unspecific binding of the secondary antibody. A buffer exchange was performed with a Slide-A-Lyzer® Dialysis Cassette (3.5-20K Cassettes, Thermo Scientific, Rockford, Ill., USA) to remove glycerol and bovine serum albumin (BSA) from the antibody solution using Melon™ Gel IgG Spin Purification Kit. Biotin was added using the EZ-Link® Micro NHS-PEO4-Biotinylation kit according to the manufacturer's instructions (Thermo Scientific). Murine peripheral blood or CNS mononuclear cells were incubated for 1 h at 4° C. with the primary biotinylated monoclonal mouse anti-Ninjurin-1 antibody (5 μg/ml, BD Biosciences), or with the Biotin-conjugated IgG2a, K isotype control (5 μg/ml, ebioscience). Cells were then incubated for 30 min at 4° C. with secondary antibody […]—APC (2 μg/ml, BD Biosciences). […] Cells were acquired on a BD LSR™ II Flow cytometer and analyzed using the BD FACSDiva™ software (BD Biosciences). […]

Assay [1] deals with human CD14+ monocytes migrating across human BBB-endothelial cells. The assay is described as follows: In vitro model of the human BBB (Boyden chamber): CD14+ monocyte migration. The assay is classed as cell-based. The conditions noted are these: human Ninj26-37 peptide 0.4 mM on BBB-ECs 1 h before cells; 24 h migration; vs scramble peptide. As to the method:
In vitro model of the BBB. BBB-ECs grown in primary cultures were used to generate an in vitro model of the human BBB, as published previously (Cayrol et al., Nature Immunol 9(2): 137-45 Epub 2007 Dec. 23). Human BBB-endothelial cells (25×10^3 cells/chamber) were grown in primary culture on 3 μm porous membrane (Becton Dickinson Labware, Franklin Lakes, N.J., USA), coated with 0.5% gelatin (Sigma), in endothelial cell culture media supplemented with 40% ACM, for 4 days to reach confluency. The BBB-endothelial cells were treated with 0.4 mM of scramble peptide (WRGNPGIRWAPH, SEQ ID NO: 12), 0.4 mM of human Ninj26-37 (PARWGWRHGPIN; SEQ ID NO: 5), 10 μg/ml of sheep IgG isotype control or 10 μg/ml of sheep anti-human Ninjurin-1 blocking Ab one hour prior to the addition of the leukocytes. Human ex vivo CD14^+ monocytes, or CD4^+, or CD8^+ lymphocytes were isolated, from consenting healthy donors, as described above. The leukocytes were added to the upper chamber (1×10^6 cells/chamber) and were allowed to migrate across human BBB-endothelial cells for 24 h. The cells that migrated through the BBB-endothelial cells, were recovered from the lower chamber and counted manually. All migration data shown represent at least 3 independent experiments performed in triplicate.

Regarding “PPRWGLRNRPIN (SEQ ID NO: 6) (Peptide corresponding to residues 26 to 37 of human Ninjurin-1) [mouse Ninj26-37]”, the “infiltration of Iba1+ and CD11c+ myeloid cells in the spinal cord of SCI animals” value with SCI mice (murine Ninj26-37 200 μg i.p. b.i.d. day 1 to 7 after injury, day 7 post-injury, vs control peptide) is listed as “reduced”. Also, the “clinical scores (Basso mouse scale, BMS) after SCI” value with SCI mice (murine Ninj26-37 200 μg i.p. twice a day, vs control animals) is recorded as “reduced”. Moreover, in the assay on EAE mice (Ninj26-37 200 μg i.p. twice daily day 3 to 23, vs control group), the “demyelination (tissue damage) and immune cell infiltration in EAE spinal cord, Luxol fast blue-H&E” value is “reduction in immune cell infiltration and demyelination”. Also, the “infiltrating MHC II+, F4/80+ and CD11c+ myeloid cells in EAE spinal cord, immunofluorescence and cell counts” value in the assay on EAE mice (Ninj26-37 200 μg i.p. twice daily, 14 days post-immunization, vs control/scramble) is reported as “reduction of infiltrating”. Besides, the “EAE neurological signs, symptoms and clinical scores” value in the assay with EAE mice (mouse Ninj26-37 200 μg i.p. twice a day, day 3 to 23 post-immunization, vs PBS (FIG. 6A) or scramble peptide (FIG. 15)) was “significant reduction of the neurological signs, symptoms and clinical scores”.
“PARWGWRHGPIN (SEQ ID NO: 5) (listed as Homo sapiens) [human Ninj26-37]”: the “migration of CD14+ monocytes across human BBB-endothelial cells” value in assay [1] was “significantly restricts the migration”.
